Experimental data reported in ChEMBL document CHEMBL1201862, “PubChem BioAssay data set” (2004).
Activity calls are given as the source filed them.

Columns and labels:
[1] = molecular target: Voltage-gated inwardly rectifying potassium channel KCNH2 (Homo sapiens, UniProt Q12809); details: Potency;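 further: confirmatory quantitative high-throughput screen measuring inhibition of hERG channel activity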
[2] = molecular target: T1, DNA repair and recombination protein RAD54-like (Homo sapiens, UniProt Q92698); test: inhibitors of human RAD54 branch migration, confirmation, biochemical, fluorescence, cherry-picked samples, dose series (AID 651657); format: functional
T1 sequence (Q92698 whole entry): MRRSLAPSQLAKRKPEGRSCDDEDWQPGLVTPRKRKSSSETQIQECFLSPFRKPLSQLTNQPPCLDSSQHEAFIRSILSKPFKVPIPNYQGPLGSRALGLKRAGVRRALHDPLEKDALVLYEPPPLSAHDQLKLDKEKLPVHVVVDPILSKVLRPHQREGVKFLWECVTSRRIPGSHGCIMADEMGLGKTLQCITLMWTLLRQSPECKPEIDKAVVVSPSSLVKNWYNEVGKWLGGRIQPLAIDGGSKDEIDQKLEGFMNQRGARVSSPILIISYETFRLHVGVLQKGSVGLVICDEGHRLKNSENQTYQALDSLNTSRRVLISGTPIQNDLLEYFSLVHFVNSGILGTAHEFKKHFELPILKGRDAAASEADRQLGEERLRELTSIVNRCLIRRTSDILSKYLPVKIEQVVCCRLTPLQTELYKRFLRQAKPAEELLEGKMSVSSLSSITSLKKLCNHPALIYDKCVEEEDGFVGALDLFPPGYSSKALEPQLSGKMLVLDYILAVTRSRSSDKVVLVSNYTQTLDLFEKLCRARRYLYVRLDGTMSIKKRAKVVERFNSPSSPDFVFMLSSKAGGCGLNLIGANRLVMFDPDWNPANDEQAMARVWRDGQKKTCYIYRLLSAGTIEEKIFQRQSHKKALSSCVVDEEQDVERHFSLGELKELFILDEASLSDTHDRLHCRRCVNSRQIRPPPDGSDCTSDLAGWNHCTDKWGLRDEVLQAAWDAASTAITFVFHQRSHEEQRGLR

Escherichia coli [3] = test: microbe, parasite or virus in culture
Escherichia coli [4] = test: microbe, parasite or virus in culture; remark: listed apart in the source
Streptococcus = test: Group A Streptococcus viability loss, dose response, counter-screen for streptokinase expression inhibitor project, luminescence, BacTiterGlo (AID 1915); format: functional, organism-based;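 further: potency for reduction of bacterial viability or growth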
[5] = tested on: Streptococcus sp. 'group A'; test: growth inhibition of control SK(-) GAS strain, dose response, counter-screen for streptokinase expression inhibitor project, luminescence, kanamycin, BacTiterGlo, confirmation (AID 1900); format: functional, organism-based
cells = format: functional
[6] = molecular target: Cystic fibrosis transmembrane conductance regulator/Golgi-associated PDZ and coiled-coil motif-containing protein (Homo sapiens, UniProt P13569+Q9HD26); test: CAL PDZ peptide-binding inhibitors, dose response, biochemical, fluorescence polarization, Cerulean-tagged CAL PDZ, cherry-picks (AID 504773)
[7] = Counterscreen for AddAB inhibitors: absorbance-based bacterial cell-based high throughput dose response assay for inhibitors of bacterial viability. [Related pubchem assays (depositor defined):AID435030, AID449728, AID449731, AID488942, AID488955, AID488956]; format: functional
[8] = molecular target: Beta-adrenergic receptor kinase 1 (Homo sapiens, UniProt P25098); test: aptamer displacement from bead-bound GRK2 – biochemical, cherry pick 1, bead flow cytometry, dose response (AID 504500)
INS1 = test: beta cell apoptosis inhibitors, cytokine rescue, dose response, luminescence, retest (AID 449756); format: functional, cell-based; details: Rattus norvegicus;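 further: cell death triggered by IL-1 beta plus TNF-alpha plus IFN-gamma mixture; protective hits raise ATP signal compared with cytokine alone wells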
Exodeoxyribonuclease V = Exodeoxyribonuclease V (Escherichia coli (strain K12), UniProt P04993+P07648+P08394); test: E. coli RecBCD inhibitors, dose response, counter-screen for AddAB inhibitor project, absorbance, V66 E. coli, mutant T4 phage (AID 492957); format: functional, cell-based, Escherichia coli str. K-12 substr. MG1655
[9] = molecular target: G-protein coupled receptor 55 (Homo sapiens, UniProt Q9Y2T6); test: GPR55 agonists via beta-arrestin recruitment, primary screen, imaging, U2OS cells, beta-arrestin-GFP redistribution (AID 1961); format: functional
Genome polyprotein = Genome polyprotein (dengue virus type 2, UniProt P29990); test: Dengue-2 NS5 methyltransferase inhibitors, primary screen, biochemical, confirmation dose response (AID 588689); format: functional
[10] = molecular target: Envelope glycoprotein gp160 (Human immunodeficiency virus 1, UniProt Q6QLK5); test: inhibitors of HIV fusion peptide binding, primary screen, biochemical, uHTS, fluorescence dequenching (AID 1986)
[11] = molecular target: T2, Dual specificity protein phosphatase 3 (Homo sapiens, UniProt P51452); test: VHR1 phosphatase inhibitors, biochemical (AID 1878)
Vero = Vero cell cytotoxicity, cytotoxicity control for flavivirus capping enzyme inhibitors (AID 588742); format: functional; details: Chlorocebus sabaeus
[12] = molecular target: T3, Small ubiquitin-related modifier 1 (Homo sapiens, UniProt P63165); test: inhibitors of SUMO1 peptide binding, dose response, biochemical, fluorescence polarization, uHTS hits (AID 624382); format: functional; details: read-out: IC50_Mean
[13] = molecular target: T4, Dual specificity protein phosphatase 6 (Rattus norvegicus, UniProt Q64346); test: MKP-3 phosphatase inhibitors, primary screen, biochemical, rat enzyme, in vitro (AID 425)
T4 sequence (Q64346 whole entry): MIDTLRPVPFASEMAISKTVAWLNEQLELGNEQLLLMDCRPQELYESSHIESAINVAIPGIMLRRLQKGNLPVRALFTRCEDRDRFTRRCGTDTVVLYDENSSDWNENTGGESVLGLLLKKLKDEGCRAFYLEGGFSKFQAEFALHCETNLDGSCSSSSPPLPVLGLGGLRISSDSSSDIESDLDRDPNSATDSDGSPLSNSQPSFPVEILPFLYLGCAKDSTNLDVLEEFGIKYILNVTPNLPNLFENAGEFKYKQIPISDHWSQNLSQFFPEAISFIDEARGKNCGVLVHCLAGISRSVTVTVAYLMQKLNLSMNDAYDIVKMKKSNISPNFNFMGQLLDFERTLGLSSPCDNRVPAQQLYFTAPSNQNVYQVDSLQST

Nonstructural protein 1 = Nonstructural protein 1 (Influenza A virus, UniProt Q194T2); format: functional, Influenza A virus (A/California/07/2009(H1N1))
[14] = molecular target: T2, Dual specificity protein phosphatase 3; test: VHR1 phosphatase inhibitors, primary screen, biochemical, absorbance, uHTS (AID 1654)
[15] = molecular target: Eukaryotic translation initiation factor 4E (Mus musculus, UniProt P63073); test: eIF4E–eIF4G protein interaction inhibitors, dose response, biochemical, TR-FRET (AID 855); format: functional;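 further: potency for disrupting eIF4E binding to eIF4GI seen as loss of FRET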
[16] = molecular target: T3, Small ubiquitin-related modifier 1; test: inhibitors of SUMO1 partner interactions, dose response, biochemical, FRET (AID 624383); format: functional; details: read-out: IC50_Mean
[17] = HIV-1 Env-mediated cell fusion inhibitors, dose response, CCR5-tropic Env (AID 2279); format: functional
[18] = molecular target: DNA (cytosine-5)-methyltransferase 1 (Homo sapiens, UniProt P26358); test: DNMT1 methyltransferase inhibitors, confirmation, biochemical, fluorescent molecular beacon (AID 602386); format: functional
[19] = inhibitors of SFLLRN-triggered platelet P-selectin exposure, dose response, cell-based, fluorescence, flow cytometry, human platelets (AID 2511); format: functional
[20] = blockers of SFLLRN-triggered platelet ATP secretion – cell-based, human platelets, luminescence, dry powder, dose response (AID 493100); format: functional
[21] = Luminescence Cell-Based Dose Response Follow up to Identify Inhibitors of Platelet Dense Granule Release. [Related pubchem assays (depositor defined):AID1663, AID1678, AID2398]; format: functional
A-375 [22] = test: MITF: Counter assay: A375 proliferation Measured in Cell-Based System Using Plate Reader - 2084-03_Inhibitor_Dose_DryPowder_Activity. [Related pubchem assays (depositor defined):AID488944]; format: functional; details: Homo sapiens
A-375 [23] = test: A375 melanoma cell viability reduction, dose response, counter-screen for MITF modulator project, cherry-pick samples, set 2 (AID 540335); format: functional, cell-based; details: Homo sapiens
DNA topoisomerase = DNA topoisomerase (Yersinia pestis, UniProt A0A2S9PM60); test: Y. pestis Topo-I inhibitors, cleavage product readout, dose response, biochemical, cherry-pick (AID 588525)
[24] = molecular target: Dual specificity tyrosine-phosphorylation-regulated kinase 1A (Rattus norvegicus, UniProt Q63470); format: biochemical, Homo sapiens
Hexokinase HKDC1 = molecular target: T5, Hexokinase HKDC1 (Homo sapiens, UniProt Q2TB90); test: HKDC1 hexokinase inhibitors, SAR follow-up, biochemical, set 2 (AID 588355); format: functional
T5 sequence (Q2TB90 whole entry): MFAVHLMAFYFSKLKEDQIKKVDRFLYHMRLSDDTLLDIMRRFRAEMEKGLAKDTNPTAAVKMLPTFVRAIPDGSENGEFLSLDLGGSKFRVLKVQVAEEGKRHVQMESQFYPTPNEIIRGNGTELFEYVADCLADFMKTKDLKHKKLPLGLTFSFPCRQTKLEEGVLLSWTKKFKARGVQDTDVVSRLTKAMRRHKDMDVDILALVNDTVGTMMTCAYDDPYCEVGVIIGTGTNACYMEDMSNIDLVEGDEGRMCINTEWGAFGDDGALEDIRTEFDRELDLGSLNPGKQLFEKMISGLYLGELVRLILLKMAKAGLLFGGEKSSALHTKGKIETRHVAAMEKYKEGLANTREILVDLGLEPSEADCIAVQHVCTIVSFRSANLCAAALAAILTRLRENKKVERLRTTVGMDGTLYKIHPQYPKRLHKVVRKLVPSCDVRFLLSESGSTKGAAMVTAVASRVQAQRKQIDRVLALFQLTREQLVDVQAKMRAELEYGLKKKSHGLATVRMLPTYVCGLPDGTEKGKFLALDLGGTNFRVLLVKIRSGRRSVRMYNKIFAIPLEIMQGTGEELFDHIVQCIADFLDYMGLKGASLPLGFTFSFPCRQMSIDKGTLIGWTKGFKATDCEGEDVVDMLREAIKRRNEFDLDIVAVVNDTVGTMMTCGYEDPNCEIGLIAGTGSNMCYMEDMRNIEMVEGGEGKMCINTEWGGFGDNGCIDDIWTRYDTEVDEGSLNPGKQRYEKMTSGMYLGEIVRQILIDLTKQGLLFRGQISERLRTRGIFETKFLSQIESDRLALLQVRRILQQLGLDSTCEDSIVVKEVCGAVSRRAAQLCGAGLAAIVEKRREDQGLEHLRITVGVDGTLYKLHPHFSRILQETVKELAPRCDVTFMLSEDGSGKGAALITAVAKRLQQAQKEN

Hexokinase-1 = Hexokinase-1 (Homo sapiens, UniProt P19367); test: HK1 enzyme inhibition by HKDC1 hits, SAR follow-up, selectivity assay for HKDC1 inhibitor project, biochemical, set 2, resazurin fluorescence coupled readout (AID 588356); format: functional
HEK293 [25] = test: SAR Analysis of small molecule inhibitors of T-cell specific antigen receptor-induced NF-kB activation in a HEK-293T cell line using a luminescence assay - Set 2. [Related pubchem assays (depositor defined):AID435003, AID435012, AID489026]; format: functional, cell-based; details: Homo sapiens
HEK293 [26] = test: cytotoxicity in HEK293T NF-kB-Luc cells, SAR follow-up, cytotoxicity control for NF-kB activator project, cell-based, resazurin fluorescence (AID 493251); format: functional; details: Homo sapiens
Jurkat = test: SAR Analysis of small molecule inhibitors of T-cell specific antigen receptor-induced NF-kB activation in a Jurkat cell line using a luminescence assay - Set 2. [Related pubchem assays (depositor defined):AID435003, AID435012, AID465]; format: functional, cell-based; details: Homo sapiens

T3 sequence (P63165 whole entry): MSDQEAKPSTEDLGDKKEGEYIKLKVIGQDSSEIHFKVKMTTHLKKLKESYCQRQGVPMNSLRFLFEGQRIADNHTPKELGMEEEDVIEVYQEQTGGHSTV
T2 sequence (P51452 whole entry): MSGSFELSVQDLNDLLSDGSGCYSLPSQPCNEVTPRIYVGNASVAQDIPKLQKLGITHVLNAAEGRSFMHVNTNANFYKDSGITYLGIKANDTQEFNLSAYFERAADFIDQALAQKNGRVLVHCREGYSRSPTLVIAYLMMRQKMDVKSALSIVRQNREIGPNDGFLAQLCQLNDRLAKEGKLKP
Hexokinase-1, sequence (P19367 whole entry): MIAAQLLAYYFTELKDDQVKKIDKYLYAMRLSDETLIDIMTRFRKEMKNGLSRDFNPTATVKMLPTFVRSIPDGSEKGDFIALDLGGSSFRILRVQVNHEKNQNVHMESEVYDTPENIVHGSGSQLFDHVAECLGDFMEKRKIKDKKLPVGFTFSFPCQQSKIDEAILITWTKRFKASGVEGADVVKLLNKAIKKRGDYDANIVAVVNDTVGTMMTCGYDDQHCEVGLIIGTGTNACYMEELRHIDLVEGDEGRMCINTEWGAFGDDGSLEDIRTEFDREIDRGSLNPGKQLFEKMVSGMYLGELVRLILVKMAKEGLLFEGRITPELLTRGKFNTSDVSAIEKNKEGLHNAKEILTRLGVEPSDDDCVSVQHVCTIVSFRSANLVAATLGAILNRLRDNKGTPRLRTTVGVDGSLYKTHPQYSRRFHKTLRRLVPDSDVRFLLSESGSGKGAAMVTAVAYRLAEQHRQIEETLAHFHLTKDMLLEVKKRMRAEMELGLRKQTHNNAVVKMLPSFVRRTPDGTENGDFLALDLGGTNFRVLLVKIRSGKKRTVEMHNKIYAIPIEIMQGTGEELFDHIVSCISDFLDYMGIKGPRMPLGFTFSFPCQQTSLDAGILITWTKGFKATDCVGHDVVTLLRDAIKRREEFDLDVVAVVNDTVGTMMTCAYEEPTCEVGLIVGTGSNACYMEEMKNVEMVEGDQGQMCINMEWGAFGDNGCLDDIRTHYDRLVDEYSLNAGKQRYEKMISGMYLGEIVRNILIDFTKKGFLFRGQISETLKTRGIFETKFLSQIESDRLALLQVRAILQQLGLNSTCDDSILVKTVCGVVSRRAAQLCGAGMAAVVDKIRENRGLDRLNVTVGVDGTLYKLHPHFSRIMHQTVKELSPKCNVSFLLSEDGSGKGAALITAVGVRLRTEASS
Envelope glycoprotein gp160, sequence (Q6QLK5 whole entry, the tested form may be a part): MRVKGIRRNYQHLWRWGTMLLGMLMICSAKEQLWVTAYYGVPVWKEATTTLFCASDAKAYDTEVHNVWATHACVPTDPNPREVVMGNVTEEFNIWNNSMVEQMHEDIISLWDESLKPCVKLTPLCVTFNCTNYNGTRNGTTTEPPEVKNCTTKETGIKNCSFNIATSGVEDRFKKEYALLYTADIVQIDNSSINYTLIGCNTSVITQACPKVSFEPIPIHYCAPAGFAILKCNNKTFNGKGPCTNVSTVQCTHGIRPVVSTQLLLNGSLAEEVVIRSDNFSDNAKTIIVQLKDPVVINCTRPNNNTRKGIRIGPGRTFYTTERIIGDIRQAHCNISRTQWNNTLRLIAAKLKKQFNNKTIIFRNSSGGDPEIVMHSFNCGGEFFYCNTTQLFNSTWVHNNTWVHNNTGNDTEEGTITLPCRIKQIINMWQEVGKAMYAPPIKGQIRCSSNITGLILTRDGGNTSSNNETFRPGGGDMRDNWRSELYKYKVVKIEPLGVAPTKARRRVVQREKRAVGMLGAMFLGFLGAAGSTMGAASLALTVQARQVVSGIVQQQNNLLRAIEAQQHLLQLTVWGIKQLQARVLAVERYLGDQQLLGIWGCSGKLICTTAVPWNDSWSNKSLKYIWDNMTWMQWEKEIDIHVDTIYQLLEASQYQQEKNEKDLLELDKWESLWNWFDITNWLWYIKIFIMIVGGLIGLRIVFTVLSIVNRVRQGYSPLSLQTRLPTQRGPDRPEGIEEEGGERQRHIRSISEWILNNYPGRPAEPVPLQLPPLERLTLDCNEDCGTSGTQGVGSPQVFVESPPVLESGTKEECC
Genome polyprotein, sequence (P29990 2492-3391 limits assumed): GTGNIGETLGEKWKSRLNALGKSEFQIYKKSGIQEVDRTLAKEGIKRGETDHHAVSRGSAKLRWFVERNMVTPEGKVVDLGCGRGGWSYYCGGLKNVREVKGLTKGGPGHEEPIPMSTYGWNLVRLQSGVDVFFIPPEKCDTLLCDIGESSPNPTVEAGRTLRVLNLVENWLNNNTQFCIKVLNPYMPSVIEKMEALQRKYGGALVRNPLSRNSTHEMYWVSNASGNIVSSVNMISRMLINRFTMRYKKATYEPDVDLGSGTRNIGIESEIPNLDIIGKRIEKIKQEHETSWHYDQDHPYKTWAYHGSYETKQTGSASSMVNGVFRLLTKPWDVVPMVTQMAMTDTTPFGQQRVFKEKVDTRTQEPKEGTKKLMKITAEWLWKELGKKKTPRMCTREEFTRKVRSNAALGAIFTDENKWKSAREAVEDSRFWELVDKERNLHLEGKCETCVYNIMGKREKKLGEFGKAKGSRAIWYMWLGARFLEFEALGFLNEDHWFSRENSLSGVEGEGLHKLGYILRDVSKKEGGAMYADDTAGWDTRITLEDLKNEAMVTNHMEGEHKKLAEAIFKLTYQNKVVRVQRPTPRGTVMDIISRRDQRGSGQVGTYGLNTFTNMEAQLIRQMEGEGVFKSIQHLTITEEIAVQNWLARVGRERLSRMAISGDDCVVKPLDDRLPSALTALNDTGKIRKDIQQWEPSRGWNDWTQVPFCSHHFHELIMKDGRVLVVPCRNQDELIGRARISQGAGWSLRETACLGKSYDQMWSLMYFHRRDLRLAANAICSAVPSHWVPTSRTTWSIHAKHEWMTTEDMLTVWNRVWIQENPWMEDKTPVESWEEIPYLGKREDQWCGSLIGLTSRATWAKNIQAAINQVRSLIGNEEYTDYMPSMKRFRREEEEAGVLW
Cystic fibrosis transmembrane conductance regulator/Golgi-associated PDZ and coiled-coil motif-containing protein, sequence (P13569 whole entry, other chains not shown): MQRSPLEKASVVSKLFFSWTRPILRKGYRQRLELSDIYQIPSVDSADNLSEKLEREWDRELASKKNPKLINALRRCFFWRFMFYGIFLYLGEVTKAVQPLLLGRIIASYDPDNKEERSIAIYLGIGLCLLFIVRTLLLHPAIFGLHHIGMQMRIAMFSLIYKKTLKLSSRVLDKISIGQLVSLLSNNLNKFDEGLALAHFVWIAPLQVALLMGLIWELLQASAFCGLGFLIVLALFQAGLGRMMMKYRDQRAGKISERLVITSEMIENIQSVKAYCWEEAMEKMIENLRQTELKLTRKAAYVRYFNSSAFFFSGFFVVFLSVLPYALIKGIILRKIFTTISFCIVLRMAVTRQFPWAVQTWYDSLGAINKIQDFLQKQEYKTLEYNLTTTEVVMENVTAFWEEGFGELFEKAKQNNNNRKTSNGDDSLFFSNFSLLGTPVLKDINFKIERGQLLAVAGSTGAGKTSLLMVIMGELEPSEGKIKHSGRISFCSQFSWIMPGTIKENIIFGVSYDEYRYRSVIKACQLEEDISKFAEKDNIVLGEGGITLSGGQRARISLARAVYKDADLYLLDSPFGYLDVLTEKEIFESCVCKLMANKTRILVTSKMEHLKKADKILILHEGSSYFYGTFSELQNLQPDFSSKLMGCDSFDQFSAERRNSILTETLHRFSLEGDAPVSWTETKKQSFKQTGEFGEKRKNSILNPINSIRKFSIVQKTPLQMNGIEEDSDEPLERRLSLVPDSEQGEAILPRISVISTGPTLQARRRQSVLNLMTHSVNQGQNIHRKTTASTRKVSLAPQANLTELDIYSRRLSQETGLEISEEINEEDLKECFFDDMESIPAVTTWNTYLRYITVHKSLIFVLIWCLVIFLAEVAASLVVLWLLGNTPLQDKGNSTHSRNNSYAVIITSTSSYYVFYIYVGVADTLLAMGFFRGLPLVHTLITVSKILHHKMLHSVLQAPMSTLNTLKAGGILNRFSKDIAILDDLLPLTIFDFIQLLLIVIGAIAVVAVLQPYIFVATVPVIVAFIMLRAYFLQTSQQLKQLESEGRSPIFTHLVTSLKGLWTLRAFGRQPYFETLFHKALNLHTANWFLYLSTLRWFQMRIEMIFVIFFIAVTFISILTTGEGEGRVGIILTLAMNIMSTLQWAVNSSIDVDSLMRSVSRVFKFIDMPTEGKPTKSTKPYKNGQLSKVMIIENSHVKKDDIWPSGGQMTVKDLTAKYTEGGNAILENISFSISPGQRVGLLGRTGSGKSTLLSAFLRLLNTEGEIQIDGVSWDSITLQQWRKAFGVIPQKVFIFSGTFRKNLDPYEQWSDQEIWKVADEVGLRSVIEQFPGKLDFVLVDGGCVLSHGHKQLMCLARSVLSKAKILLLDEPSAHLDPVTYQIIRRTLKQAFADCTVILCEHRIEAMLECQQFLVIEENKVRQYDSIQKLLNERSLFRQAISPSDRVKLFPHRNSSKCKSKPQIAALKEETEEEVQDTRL
Eukaryotic translation initiation factor 4E, sequence (P63073 whole entry): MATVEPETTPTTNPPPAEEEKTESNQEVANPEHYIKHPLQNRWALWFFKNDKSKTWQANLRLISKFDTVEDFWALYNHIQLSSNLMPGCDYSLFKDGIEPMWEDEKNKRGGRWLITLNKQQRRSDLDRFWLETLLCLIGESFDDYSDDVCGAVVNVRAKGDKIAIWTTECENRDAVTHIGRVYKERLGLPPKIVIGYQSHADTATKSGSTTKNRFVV
G-protein coupled receptor 55, sequence (Q9Y2T6 whole entry): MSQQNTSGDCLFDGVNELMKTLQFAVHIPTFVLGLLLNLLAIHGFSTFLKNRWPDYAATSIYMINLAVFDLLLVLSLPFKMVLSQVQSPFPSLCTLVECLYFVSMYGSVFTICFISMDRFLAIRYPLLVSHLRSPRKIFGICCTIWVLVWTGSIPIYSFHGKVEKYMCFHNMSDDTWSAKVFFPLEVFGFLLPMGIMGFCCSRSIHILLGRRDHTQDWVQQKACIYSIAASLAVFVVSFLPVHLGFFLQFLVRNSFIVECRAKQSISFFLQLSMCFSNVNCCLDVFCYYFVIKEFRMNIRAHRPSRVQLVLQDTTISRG

O=[N+]([O-])c1cccc(Cl)c1Cl
AC50 [1]: 50.1 µM (inconclusive)

NC1CCN(c2c(F)cc3c(=O)c(C(=O)O)cn(C4CC4)c3c2Cl)C1 (configuration not stated) [CLINAFLOXACIN]
AC50 [2]: 41.4 µM (active)
AC50 (Escherichia coli [3]): 4.49 µM (active)
AC50 (Escherichia coli [4]): 0.816 µM (active)
EC50 (Streptococcus): 0.142 µM (active)
EC50 [5]: 0.115 µM (active)
IC50 (cells): 0.15 µM (active)

O=C(c1ccccc1)c1c2c(cc3sc4ccccc4[n+]13)-c1cccc3cccc-2c13
AC50 [6]: 72.6 µM (active)
IC50 [7]: 15.1 µM (inactive)
EC50 [8]: 0.06 µM (active)
AC50 (INS1): 2.05 µM (active)
IC50 (Exodeoxyribonuclease V): 91.3 µM (inactive)
EC50 [9]: > 32 µM (inactive)

COc1cc(/C=C2\SC(=O)N(Cc3ccc(Cl)cc3)C2=O)cc([N+](=O)[O-])c1O
IC50 (Genome polyprotein): 67.5 µM (active)
IC50 [10]: 14.9 µM (active)
IC50 [11]: 3.54 µM (active)
CC50 (Vero): > 40 µM (active)
IC50 [12]: > 66.6 µM (inactive)
IC50 [13]: > 158 µM (not active)
IC50 (Nonstructural protein 1): 26.9 µM (active)
IC50 [14]: 4.68 µM (active)
IC50 [15]: 36.7 µM (inactive)
IC50 [16]: 6.99 µM (active)
IC50 [17]: > 50 µM (active)
IC50 [18]: 4.6 µM (active)

Cc1ccc(-c2c(C#N)c(N)n(-c3ccc(Cl)cc3)c(=O)c2C#N)cc1
EC50 [19]: < 3 µM (active)
AC50 [20]: 20.4 µM (active)
EC50 [21]: 9.21 µM (active)

CSC(=N)N/N=C/c1ccc2c(c1)OCO2
AC50 (A-375 [22]): > 35 µM (active)
AC50 (A-375 [23]): > 35 µM (active)

CSc1ccccc1OCc1cc(C(=O)NCCCc2ccccc2)no1
AC50 (DNA topoisomerase): 17 µM (active)

c1nc2sc3c(c2c2nnnn12)CCCC3
AC50 [24]: 63.2 µM (active)

O=C(NC1C(=O)N(CCN2CCOCC2)c2ccccc21)c1ccccc1 (configuration not stated)
IC50 (Hexokinase HKDC1): > 80 µM (inactive)
IC50 (Hexokinase-1): > 80 µM (inactive)

O=C(Nc1ccc2c(c1)CCO2)c1ccc([N+](=O)[O-])o1
IC50 (HEK293 [25]): 45.6 µM (inactive)
IC50 (HEK293 [26]): 59.5 µM (inactive)
IC50 (Jurkat): 33.8 µM (inactive)
